From patent US9624241B2 (Incyte Corporation, priority 2013, dated 2017)

How the values were obtained:
BRD4-BD1 = BRD4-BD1 (Homo sapiens (Human), UniProt O60885); experiment: BRD4 AlphaScreen Assay (Example A1), BRD4-BD1; format: binding; conditions: Assay A1, 3.8 nM BRD4-BD1, 50 nM H4Ac4 peptide; read-out: BRD4 BD-1 enzyme IC50
Description: (§1) BRD4-BD1 and BRD4-BD2 assays were conducted in white 384-well polystyrene plate in a final volume of 20 μL for BD1 and 40 μL for BD2. Inhibitors were first serially diluted in DMSO and added to the plate wells before the addition of other reaction components. […] After plate sealing, the plate was incubated in the dark at room temperature for 75 min. before reading on a PHERAstar FS plate reader (BMG Labtech). IC50 determination was performed by fitting the curve of percent control activity versus the log of the inhibitor concentration using the GraphPad Prism 5.0 software.

BRD4-BD2 = BRD4-BD2 (Homo sapiens (Human), UniProt O60885); experiment: BRD4 AlphaScreen Assay (Example A1), BRD4-BD2; format: binding; conditions: Assay A1, 20 nM BRD4-BD2, 50 nM H4Ac4 peptide; read-out: BRD4 BD-2 enzyme IC50
Description: as §1

| SMILES | IC50 (BRD4-BD1) [nM] | IC50 (BRD4-BD2) [nM] |
| --- | --- | --- |
| CCNc1nc2ccc(-c3c(C)noc3C)c3c2n1C(c1ccccc1)CO3 (stereo not drawn) [Example 27, 7-(3,5-Dimethylisoxazol-4-yl)-N-ethyl-4-phenyl-4,5-dihydroimidazo[1,5,4-de][1,4]benzoxazin-2-amine] | < 100 | < 100 |
| COc1ccccc1C1COc2c(-c3c(C)noc3C)ccc3[nH]c(=O)n1c23 (stereo not drawn) [Example 7, 7-(3,5-Dimethylisoxazol-4-yl)-4-(2-methoxyphenyl)-4,5-dihydroimidazo[1,5,4-de][1,4]benzoxazin-2(1H)-one] | < 100 | < 100 |
| CNc1nc2ccc(-c3c(C)noc3C)c3c2n1C(c1ccccc1)CO3 (stereo not drawn) [Example 26, 7-(3,5-Dimethylisoxazol-4-yl)-N-methyl-4-phenyl-4,5-dihydroimidazo[1,5,4-de][1,4]benzoxazin-2-amine] | < 100 | < 100 |
| Cc1noc(C)c1-c1ccc2nc(N(C)CCO)n3c2c1OCC3c1ccccc1 (stereo not drawn) [Example 34, 2-[[7-(3,5-Dimethylisoxazol-4-yl)-4-phenyl-4,5-dihydroimidazo[1,5,4-de][1,4]benzoxazin-2-yl](methyl)amino]ethanol] | < 100 | < 100 |
| Cc1noc(C)c1-c1ccc2nc(NC(C)CO)n3c2c1OCC3c1ccccc1 (single isomer, unassigned) [Example 31, 2-{[7-(3,5-Dimethylisoxazol-4-yl)-4-phenyl-4,5-dihydroimidazo[1,5,4-de][1,4]benzoxazin-2-yl]amino}propan-1-ol] | < 100 | < 100 |
| Cc1noc(C)c1-c1ccc2[nH]c(=O)n3c2c1OCC3c1ccc(F)cc1 (stereo not drawn) [Example 49, 7-(3,5-Dimethylisoxazol-4-yl)-4-(4-fluorophenyl)-4,5-dihydroimidazo[1,5,4-de][1,4]benzoxazin-2(1H)-one] | < 100 | < 100 |
| COc1cccc(C2COc3c(-c4c(C)noc4C)ccc4[nH]c(=O)n2c34)c1 (stereo not drawn) [Example 6, 7-(3,5-Dimethylisoxazol-4-yl)-4-(3-methoxyphenyl)-4,5-dihydroimidazo[1,5,4-de][1,4]benzoxazin-2(1H)-one] | < 100 | < 100 |
| Cc1noc(C)c1-c1ccc2[nH]c(=O)n3c2c1OCC3c1ccc(C#N)cc1 (stereo not drawn) [Example 4, 4-[7-(3,5-Dimethylisoxazol-4-yl)-2-oxo-1,2,4,5-tetrahydroimidazo[1,5,4-de][1,4]benzoxazin-4-yl]benzonitrile] | < 100 | < 100 |
| Cc1noc(C)c1-c1ccc2nc(N3CCC(O)CC3)n3c2c1OCC3c1ccccc1 (stereo not drawn) [Example 57, 1-[7-(3,5-Dimethylisoxazol-4-yl)-4-phenyl-4,5-dihydroimidazo[1,5,4-de][1,4]benzoxazin-2-yl]piperidin-4-ol] | < 100 | < 100 |
| Cc1noc(C)c1-c1ccc2nc(N(C)C)n3c2c1OCC3c1ccccc1 (stereo not drawn) [Example 28, 7-(3,5-Dimethylisoxazol-4-yl)-N,N-dimethyl-4-phenyl-4,5-dihydroimidazo[1,5,4-de][1,4]benzoxazin-2-amine] | < 100 | < 100 |
| Cc1n[nH]c(C)c1-c1ccc2[nH]c(=O)n3c2c1OCC3c1ccccc1 (stereo not drawn) [Example 11, 7-(3,5-Dimethyl-1H-pyrazol-4-yl)-4-phenyl-4,5-dihydroimidazo[1,5,4-de][1,4]benzoxazin-2(1H)-one] | 1000 to 10000 | 100 to 1000 |
| Cc1noc(C)c1-c1ccc2ncn3c2c1OCC3c1ccccc1 (stereo not drawn) [Example 39, 7-(3,5-Dimethylisoxazol-4-yl)-4-phenyl-4,5-dihydroimidazo[1,5,4-de][1,4]benzoxazine] | < 100 | < 100 |
| Cc1cc(-c2ccnn2C)c2c3c1[nH]c(=O)n3C(c1ccccc1)CO2 (stereo not drawn) [Example 37, 9-Methyl-7-(1-methyl-1H-pyrazol-5-yl)-4-phenyl-4,5-dihydroimidazo[1,5,4-de][1,4]benzoxazin-2(1H)-one] | 100 to 1000 | < 100 |
| Cc1noc(C)c1-c1ccc2[nH]c(=O)n3c2c1OCC3c1ccccc1OCC(=O)N(C)C (stereo not drawn) [Example 51, 2-{2-[7-(3,5-Dimethylisoxazol-4-yl)-2-oxo-1,2,4,5-tetrahydroimidazo[1,5,4-de][1,4]benzoxazin-4-yl]phenoxy}-N,N-dimethylacetamide] | < 100 | < 100 |
| Cc1noc(C)c1-c1ccc2[nH]c(=O)n3c2c1OCC3C1CCCO1 (single isomer, unassigned) [Example 18A, 7-(3,5-Dimethylisoxazol-4-yl)-4-(tetrahydrofuran-2-yl)-4,5-dihydroimidazo[1,5,4-de][1,4]benzoxazin-2(1H)-one] | 100 to 1000 | < 100 |
| Cc1noc(C)c1-c1ccc2[nH]c(=O)n3c2c1OCC3C1CCCCC1 (stereo not drawn) [Example 17, 4-Cyclohexyl-7-(3,5-dimethylisoxazol-4-yl)-4,5-dihydroimidazo[1,5,4-de][1,4]benzoxazin-2(1H)-one] | < 100 | < 100 |
| Cc1noc(C)c1-c1ccc2nc(N3CCN(C(=O)OC(C)(C)C)CC3)n3c2c1OCC3c1ccccc1 (stereo not drawn) [Example 60] | < 100 | < 100 |
| Cn1nccc1-c1ccc2[nH]c(=O)n3c2c1OCC3c1ccccc1 (stereo not drawn) [Example 35, 7-(1-Methyl-1H-pyrazol-5-yl)-4-phenyl-4,5-dihydroimidazo[1,5,4-de][1,4]benzoxazin-2(1H)-one] | 100 to 1000 | < 100 |
| CCNC(=O)COc1ccccc1C1COc2c(-c3c(C)noc3C)ccc3[nH]c(=O)n1c23 (stereo not drawn) [Example 22, 2-{2-[7-(3,5-Dimethylisoxazol-4-yl)-2-oxo-1,2,4,5-tetrahydroimidazo[1,5,4-de][1,4]benzoxazin-4-yl]phenoxy}-N-ethylacetamide] | < 100 | < 100 |
| Cc1noc(C)c1-c1ccc2c3c1OCC(c1ccccc1)n3c(=O)n2CCN1CCOCC1 (stereo not drawn) [Example 10, 7-(3,5-Dimethylisoxazol-4-yl)-1-(2-morpholin-4-ylethyl)-4-phenyl-4,5-dihydroimidazo[1,5,4-de][1,4]benzoxazin-2(1H)-one] | 100 to 1000 | < 100 |
| Cc1noc(C)c1-c1ccc2[nH]c(=O)n3c2c1OCC3c1nccs1 (stereo not drawn) [Example 21, 7-(3,5-Dimethylisoxazol-4-yl)-4-(1,3-thiazol-2-yl)-4,5-dihydroimidazo[1,5,4-de][1,4]benzoxazin-2(1H)-one] | < 100 | < 100 |
| Cc1noc(C)c1-c1ccc2[nH]c(=O)n3c2c1OCC3C1CCCO1 (single isomer, unassigned) [Example 18B, 7-(3,5-Dimethylisoxazol-4-yl)-4-(tetrahydrofuran-2-yl)-4,5-dihydroimidazo[1,5,4-de][1,4]benzoxazin-2(1H)-one] | 100 to 1000 | < 100 |
| Cc1noc(C)c1-c1ccc2nc(C)n3c2c1OCC3c1ccccc1 (stereo not drawn) [Example 9, 7-(3,5-Dimethylisoxazol-4-yl)-2-methyl-4-phenyl-4,5-dihydroimidazo[1,5,4-de][1,4]benzoxazine] | < 100 | < 100 |
| Cc1noc(C)c1-c1ccc2nc(NCC(C)O)n3c2c1OCC3c1ccccc1 (stereo not drawn) [Example 32, 1-{[7-(3,5-Dimethylisoxazol-4-yl)-4-phenyl-4,5-dihydroimidazo[1,5,4-de][1,4]benzoxazin-2-yl]amino}propan-2-ol] | < 100 | < 100 |
